Laboratory results: patent publication US7709443B2, “Cyclic peptide antitumor agents” (Northwestern University, priority 2003, dated 2010)
≈ marks a conversion by molar mass, not a printed value. Where two headings read alike, the source gives them in different places. Square brackets hold non-standard residues; d marks the D form. Peptide text beside a SMILES is read from it. Phe(4-Br) = N[C@@H](Cc1ccc(Br)cc1)C(=O)O; Phe(4-I) = N[C@@H](Cc1ccc(I)cc1)C(=O)O; NMeF = CN[C@@H](Cc1ccccc1)C(=O)O; Hica(2S) = CC(C)C[C@H](O)C(=O)O; NMeL = CN[C@@H](CC(C)C)C(=O)O; NMeV = CN[C@H](C(=O)O)C(C)C; Aib = CC(C)(N)C(=O)O

Columns and labels:
[1] = tested on: PC-3 (Prostate) human cancer cell line; conditions: three days
Procedure: (§4) Cells were plated at 5,000 cells per well in 24-well plates, treated for three days, then counted. Cell number was normalized to the number of cells in untreated control (DMSO) cells, also after three days.

[2] = tested on: MDA-MB231 (Breast) human cancer cell line; conditions: three days
Procedure: as §4

[3] = tested on: WM115 (Melanoma) human cancer cell line; conditions: three days
Procedure: as §4

[4] = tested on: HCT-116 (human colon carcinoma); experiment: cells; conditions: for times more potent than sansalvamide A toward HCT-116: relative to sansalvamide A
Text: The HCT-116 human colon adenocarcinoma screen is a tissue culture first line assay to detect inherent cytotoxicity against malignant cancer cells. This strain is considered to be an “indicator strain” by many for the selection of inhibitors that target solid tumors. The assay is a calorimetric endpoint assay which can be produced in 96-well format trays. Data are acquired by plate reader and dose response curves are produced by computer analysis. […] This assay is run routinely as described below and would be understood in the art.
1. Media (1000 mL McCoy's 5A Medium, 114 mL Fetal Bovine Serum, 25 mL Hepes buffer solution (IM), 12.5 mL Penicillin-Streptomycin solution)
2. Cell line (HCT-116, human colon cancer cell line)
3. Indicator (MTS and PMS in DPBS)
5. Standard anticancer drug (etoposide (VP-16); stock is 4 mg/mL in DMSO
6. DPBS (without CaCl2 and MgCl2)
1. Remove medium from the cells and rinse with 10 mL sterile DPBS.
3. Allow to stand in hood for 1 minute.
4. Remove trypsin with sterile pipette.
5. Allow flask to stand in hood for 2-5 minutes.
6. Add 10 mL of media to flask and pipette up and down to gently break up cell clumps.
7. Count the number of cells using a hemacytometer.
8. Determine # of plates needed, and total volume of cell suspension (16 or 18 mL per plate).
9. Dilute cells to a final concentration of 2.5×10^4 cells/mL in a sterile flask.
10. Pour cell suspension into a sterile trough.
For Serial Dilution Plates
1. Add 175 μL to each well in the first row of a 96 well plate.
2. Add 150 μL to the rest of the wells in A1-A10 & A12.
3. In row 11 add 150 μL cell suspension to the first 6 wells and only media to the last two.
For Single Concentration Plates
1. Add 150 μL of sterile media to G11 & H11.
2. Add 150 μL of cell suspension to all other wells.
3. Add 25 μL more to well H1.
Incubate plates overnight at 37° C. & 5% CO2
1. Add 25 μL of test compounds @ 10 mg/mL to A1-A10, 25 μL of DMSO to A11 & 25 μL of etoposide (4 mg/mL) to A12.
2. Using a twelve channel pipette, mix well then remove 50 μL from the first row and transfer to the next row, repeat down the plate until row F, then remove tip # 11 and continue down plate discarding the last 50 μL.
3. Incubate plates for 72 h.
1. Add 20 μL of MTS/PMS solution to each well.
3. Read plates @490 nm on plate reader.

AsPC-1 cells = experiment: Cell proliferation assay (Guava ViaCount cell number), AsPC-1; type: cell-based, human; conditions: AsPC-1, 10 μM, 72 hours, vs vehicle (DMSO)
Procedure: (§1) Given the results of the preceding example, several compounds of this invention were tested against human pancreatic cancer cell lines. Two cancer cell lines were selected: S2-013 (well-differentiated) and AsPC-1 (poorly differentiated). These cell lines were purchased from American Type Culture Collection (Manassas, Va.). Both cell lines were grown in DMEM and plated as monolayers in the medium supplemented with 10% fetal bovine serum in a humidified atmosphere of […] and 5% CO2 at 37° C. The cells were regularly seeded into 75 cm^2 flasks with media changes every second or third day. For experiments, cells were grown to 70% confluence, digested with trypsin-EDTA, and plated in either 6-, 24-, or 48-well plates.
(§2) Cell Proliferation Assay. Cells were regularly seeded into three 6-well plates and incubated at 37° C. for 24 hours. Cells were then cultured in serum-free medium for another 24 hours and treated in fresh serum-free medium with or without 10 μM of cyclic peptide 1k for 24, 48, and 72 hours. At the end of each time period, the cells were trypsinized to produce a single cell suspension, and the cell number in each well was determined using Guava Technologies=ViaCount Assay (Guava Technologies Inc, Hayward, Calif.).
(§3) Statistical Analysis. Data were analyzed by ANOVA with Dunnett's or Bonferoni's corrections for multiple comparisons, as appropriate. This analysis was performed with the Prism software package (GraphPad, San Diego, Calif.). Data were expressed as mean±SEM.

S2-013 cell line = experiment: Cell proliferation assay (Guava ViaCount cell number), S2-013; type: cell-based, human; conditions: S2-013, 10 μM, 72 hours, vs vehicle (DMSO)
Procedure: as §1, §2, §3

[5] = tested on: Caspase-3 activity in PC-3 cells; experiment: Caspase-3 activity, fluorometric assay; type: cell-based, human; conditions: relative to DMSO and staurosporin controls
Procedure: Caspase-3 is a mediator of apoptosis, and induction of Caspase-3 activity indicates induction of apoptosis. Activity of Caspase-3 was measured by a fluorometric assay, as described in the literature, referenced above.

Structure (SMILES) | Fold Induction Over DMSO control ([1]; PC-3, 1 μM) | Fold Induction Over DMSO control ([1]; PC-3, 10 μM) | Fold Induction Over DMSO control ([2]; MDA-MB231, 1 μM) | Fold Induction Over DMSO control ([2]; MDA-MB231, 10 μM) | Fold Induction Over DMSO control ([3]; WM115, 1 μM) | Fold Induction Over DMSO control ([3]; WM115, 10 μM) | IC50 ([4]; HCT-116 bioassay, Table 1) | times more potent than sansalvamide A toward HCT-116 [4] | IC50 ([4]; Homo sapiens, HCT-116) | change in number of cells (AsPC-1 cells) | change in number of cells (S2-013 cell line) | Caspase-3 activity [5]
CC(C)C[C@@H]1NC(=O)[C@H](CC(C)C)NC(=O)[C@H](Cc2ccccc2)N(C)C(=O)[C@H](CC(C)C)NC(=O)[C@H](C(C)C)NC1=O [Compound 1j] (cyclo([NMeF]LLVL)) | 0.86 | 0.8 | 0.78 | 0.82 | 1.75 | 0.60 | – | – | – | – | – | –
CC(C)C[C@@H]1NC(=O)[C@H](Cc2ccccc2)NC(=O)[C@H](CC(C)C)NC(=O)[C@H](C(C)C)NC(=O)[C@H](CC(C)C)NC1=O [Compound 1, sansalvamide A peptide] (cyclo(FLLVL)) | 1.03 | 0.90 | 0.91 | 0.69 | 0.92 | 0.56 | 0.98 µg/mL (≈ 1.67 µM) | about 10 times | – | – | – | –
CC(C)C[C@@H]1NC(=O)[C@H](Cc2ccc(Br)cc2)NC(=O)[C@H](CC(C)C)NC(=O)[C@H](C(C)C)N(C)C(=O)[C@H](CC(C)C)NC1=O [Compound 1g] (cyclo([Phe(4-Br)]LL[NMeV]L)) | 0.74 | 0.67 | 0.88 | 0.31 | 1.02 | 0.84 | – | – | – | – | – | –
CC(C)C[C@@H]1NC(=O)[C@H](C(C)C)NC(=O)[C@H](CC(C)C)NC(=O)[C@H](CC(C)C)N(C)C(=O)[C@H](Cc2ccccc2)NC1=O [Compound 1b] (cyclo(F[NMeL]LVL)) | 1.24 | 0.81 | 0.87 | 0.71 | 1.02 | 3.02 | – | – | – | – | – | –
CC(C)C[C@@H]1NC(=O)[C@H](Cc2ccc(Br)cc2)NC(=O)[C@H](CC(C)C)NC(=O)[C@H](C(C)C)NC(=O)[C@H](CC(C)C)NC1=O [Compound 1a] (cyclo([Phe(4-Br)]LLVL)) | 0.94 | 0.74 | 0.95 | 0.60 | 0.85 | 0.99 | – | – | – | – | – | –
CC(C)C[C@@H]1NC(=O)[C@H](Cc2ccccc2)NC(=O)[C@H](CC(C)C)N(C)C(=O)[C@H](C(C)C)NC(=O)[C@H](CC(C)C)NC1=O [Compound 1h] (cyclo(FLLV[NMeL])) | 0.79 | 0.64 | 1.01 | 0.28 | 1.13 | 0.51 | – | – | – | – | – | –
CC(C)C[C@@H]1NC(=O)[C@H](C(C)C)NC(=O)[C@H](CC(C)C)OC(=O)[C@H](CC(C)C)NC(=O)[C@H](Cc2ccc(I)cc2)NC1=O (cyclo(L[Phe(4-I)]L[Hica(2S)]V)) | – | – | – | – | – | – | 11.3 µg/mL (≈ 15.9 µM) | – | – | – | – | –
COc1cc([C@@H]2c3cc4c(cc3[C@@H](O[C@@H]3O[C@@H]5CO[C@@H](C)O[C@H]5[C@H](O)[C@H]3O)[C@H]3COC(=O)[C@H]23)OCO4)cc(OC)c1O [etoposide, reference compound] | – | – | – | – | – | – | – | – | 1.5 µg/mL (≈ 2.55 µM) | – | – | –
CC(C)C[C@@H]1NC(=O)[C@H](Cc2ccccc2)NC(=O)[C@H](Cc2ccccc2)N(C)C(=O)[C@H](Cc2ccccc2)NC(=O)C(C)(C)NC(=O)[C@H](CC(C)C)N(C)C(=O)[C@@H]2CCCN2C1=O [Scytalidamide A, reference compound] (cyclo(F[NMeF]FLP[NMeL][Aib])) | 0.63 | 0.15 | 2.75 | 0.11 | 1.01 | 0.07 | – | – | – | significant (p<0.05) decrease | exception | –
CC(C)C[C@@H]1NC(=O)[C@H](C(C)C)NC(=O)[C@H](CC(C)C)N(C)C(=O)[C@H](CC(C)C)NC(=O)[C@H](Cc2ccc(Br)cc2)NC1=O [drawing 9] (cyclo([Phe(4-Br)]L[NMeL]VL)) | – | – | – | – | – | – | 0.11 µg/mL (≈ 0.162 µM) | ~100 times | – | – | – | –
CC(C)C[C@@H]1NC(=O)[C@H](C(C)C)NC(=O)[C@H](CC(C)C)N(C)C(=O)[C@H](CC(C)C)NC(=O)[C@H](Cc2ccc(Br)cc2)NC1=O [Compound 1e] (cyclo([Phe(4-Br)]L[NMeL]VL)) | 0.62 | 0.82 | 1.20 | 0.82 | 0.89 | 0.95 | – | – | – | – | – | –
CC(C)C[C@@H]1NC(=O)[C@H](C(C)C)NC(=O)[C@H](CC(C)C)OC(=O)[C@H](CC(C)C)NC(=O)[C@H](Cc2ccc(Br)cc2)NC1=O (cyclo(L[Phe(4-Br)]L[Hica(2S)]V)) | – | – | – | – | – | – | 4.5 µg/mL (≈ 6.76 µM) | – | – | – | – | –
CC(C)C[C@@H]1NC(=O)[C@H](Cc2ccccc2)NC(=O)[C@H](CC(C)C)NC(=O)[C@H](C(C)C)N(C)C(=O)[C@H](CC(C)C)NC1=O [Compound 1f] (cyclo(FLL[NMeV]L)) | 0.92 | 0.74 | 1.04 | 0.26 | 1.00 | 1.06 | – | – | – | – | – | –
CC(C)C[C@@H]1NC(=O)[C@H](C(C)C)NC(=O)[C@H](CC(C)C)NC(=O)[C@H](CC(C)C)N(C)C(=O)[C@H](Cc2ccc(Br)cc2)NC1=O [Compound 1c] (cyclo([Phe(4-Br)][NMeL]LVL)) | 0.75 | – | 0.56 | – | 1.10 | – | – | – | – | – | – | induced
CC(C)C[C@@H]1NC(=O)[C@H](C(C)C)NC(=O)[C@H](CC(C)C)N(C)C(=O)[C@H](CC(C)C)NC(=O)[C@H](Cc2ccccc2)NC1=O [Compound 1d] (cyclo(FL[NMeL]VL)) | 0.63 | 0.52 | 1.09 | 0.91 | 0.87 | 0.98 | – | – | – | – | – | –
